Results: patent publication US20040242591A1, “Oxazolidinone derivatives as pontential antimicrobials” (priority 2001, published 2004)

Tests used:
[1] = tested on: S. pneum AB 34; assay: MIC by agar incorporation method, S. pneum AB 34; type: cell-based, Streptococcus pneumoniae; design: unit not given here; conditions: Mueller Hinton agar, 10^4 CFU/spot, 18 hours
[2] = tested on: Ent. faecalis ATCC 29212; assay: MIC by agar incorporation method, E.faecalis 29212; type: cell-based, Enterococcus faecalis; design: unit not given here; conditions: Mueller Hinton agar, 10^4 CFU/spot, 18 hours
From the text: 3) Ent. faecalis ATCC 29212—Enterococcus faecalis ATCC 29212

[3] = tested on: MRSA 15187; assay: MIC by agar incorporation method, MRSA 15187; type: cell-based, Methicillin Resistant Staphylococcus aureus; design: unit not given here; conditions: Mueller Hinton agar, 10^4 CFU/spot, 24 hours
From the text: 2) MRSA 15187—Methicillin Resistant Staphylococcus aureus

[4] = tested on: VRE 6A; assay: MIC by agar incorporation method, VRE 6A; type: cell-based, Enterococcus faecium; design: unit not given here; conditions: Mueller Hinton agar, 10^4 CFU/spot, 18 hours
From the text: 4) Ent. faecium […]—Enterococcus faecium 6A Van®, Cipro®

[5] = tested on: Strep. pne. ATCC 6303; assay: MIC by agar incorporation method, S. pneum 6303; type: cell-based, Streptococcus pneumoniae; conditions: Mueller Hinton agar, 10^4 CFU/spot, 18 hours
From the text: 5) Strep. pne. ATCC 6303—Streptococcus pneumoniae ATCC 6303

[6] = tested on: MRSA 562; assay: MIC by agar incorporation method, MRSA 562; type: cell-based, Methicillin Resistant Staphylococcus aureus; design: unit not given here; conditions: Mueller Hinton agar, 10^4 CFU/spot, 24 hours
[7] = tested on: Strep.pyog. ATCC 19615; assay: MIC by agar incorporation method, S.pyogenes 19615; type: cell-based, Streptococcus pyogenes; design: unit not given here; conditions: Mueller Hinton agar, 10^4 CFU/spot, 18 hours
From the text: 6) Strep.pyog. ATCC 19615—Streptococcus pyogenes

[8] = tested on: S.aureus ATCC 25923; assay: MIC by agar incorporation method, S.aureus 25923; type: cell-based, Staphylococus aureus; design: unit not given here; conditions: Mueller Hinton agar, 10^4 CFU/spot, 18 hours
[9] = tested on: MRSA 33; assay: MIC by agar incorporation method, MRSA 33; type: cell-based, Methicillin Resistant Staphylococcus aureus; design: unit not given here; conditions: Mueller Hinton agar, 10^4 CFU/spot, 24 hours

SMILES	In Vitro (MIC) S. pneum AB 34 [1]	In Vitro (MIC) E.faecalis 29212 [2]	In Vitro (MIC) MRSA 15187 [3]	In Vitro (MIC) VRE 6A [4]	In Vitro (MIC) S. pneum 6303 [5]	In Vitro (MIC) MRSA 562 [6]	In Vitro (MIC) S.pyogenes 19615 [7]	In Vitro (MIC) S.aureus 25923 [8]	In Vitro (MIC) MRSA 33 [9]
CC(=O)NC[C@H]1CN(c2ccc(N3CCN(CC(=O)c4cccs4)CC3)c(F)c2)C(=O)O1 [Compound No. 2, (S)-N-[[3-[3-Fluoro-4-[N-1-[4-(2-thiophenoyl-methyl}]piperazinyl]phenyl]-2-oxo-5-oxazolidinyl]methyl]acetamide]	8	8	8	8	2 µg/mL	4	2	8	4
CC(=O)NC[C@H]1CN(c2ccc(N3CCN(Cc4cc(Br)c([N+](=O)[O-])s4)CC3)c(F)c2)C(=O)O1 [Compound No. 4]	4	2	1	2	4 µg/mL	1	4	2	2
CC(=O)NC[C@H]1CN(c2ccc(N3CCN(Cc4oc([N+](=O)[O-])cc4C)CC3)c(F)c2)C(=O)O1 [Compound No. 5]	1	2	2	4	1 µg/mL	2	0.5	2	0.254
CC(=O)NC[C@H]1CN(c2ccc(N3CCN(Cc4cc(C#N)c([N+](=O)[O-])s4)CC3)c(F)c2)C(=O)O1 [Compound No. 6]	1	4	2	8	1 µg/mL	2	1	2	2
CC(=O)NC[C@H]1CN(c2ccc(N3CCN(Cc4coc([N+](=O)[O-])c4)CC3)c(F)c2)C(=O)O1 [Compound No. 8, (S)-N-[[3-[3-Fluoro-4-[N-1-[4-{3-furyl(5-nitro)methyl}]piperazinyl]phenyl]-2-oxo-5-oxazolidinyl]methyl]acetamide]	16	8	8	4	8 µg/mL	4	4	8	4
CC(=O)NC[C@H]1CN(c2ccc(N3CCN(Cc4cc([N+](=O)[O-])cn4C)CC3)c(F)c2)C(=O)O1 [Compound No. 11]	4	4	4	4	2 µg/mL	4	2	4	4
CC(=O)NC[C@H]1CN(c2ccc(N3CCN(Cc4ccc([N+](=O)[O-])n4C)CC3)c(F)c2)C(=O)O1 [Compound No. 12, (S)-N-[[3-[3-Fluoro-4-[N-1-[4-{2-pyrrole-(1-methyl-5-nitro)methyl}]piperazinyl]phenyl]-2-oxo-5-oxazolidinyl]methyl]acetamide]	8	4	4	4	8 µg/mL	4	2	4	4
CC(=O)NC[C@H]1CN(c2ccc(N3CCN(Cc4ccc([N+](=O)[O-])[nH]4)CC3)c(F)c2)C(=O)O1 [Compound No. 13, (S)-N-[[3-[3-Fluoro-4-[N-1-[4-{2-pyrrole-(5-nitro)methyl}]piperazinyl]phenyl]-2-oxo-5-oxazolidinyl]methyl]acetamide]	4	4	2	4	4 µg/mL	4	1	4	4
CC(=O)NC[C@H]1CN(c2ccc(N3CCN(Cc4cc([N+](=O)[O-])cs4)CC3)c(F)c2)C(=O)O1 [Compound No. 14, (S)-N-[[3-[3-Fluoro-4-[N-1-[4-{2-thiophen-(4-nitro-)methyl-}]piperazinyl]phenyl]-2-oxo-5-oxazolidinyl]methyl]acetamide]	1	4	0.25	2	2 µg/mL	0.25	0.5	0.25	0.25
COc1ccc(CN2CCN(c3ccc(N4C[C@H](CNC(C)=O)OC4=O)cc3F)CC2)o1 [Compound No. 15, (S)-N-[[3-[3-Fluoro-4-[N-1-[4-{2-furyl-(5-methoxy)methyl}]piperazinyl]phenyl]-2-oxo-5-oxazolidinyl]methyl]acetamide]	2	4	4	4	2 µg/mL	4	2	4	4
CC(=O)NC[C@H]1CN(c2ccc(N3CCN(Cc4ccoc4[N+](=O)[O-])CC3)c(F)c2)C(=O)O1 [Compound No. 18, (S)-N-[[3-[3-Fluoro-4-[N-1[4-{3-furyl(2-nitro)methyl}]piperazinyl]phenyl]-2-oxo-5-oxazolidinyl]methyl]acetamide]	2	4	4	4	1 µg/mL	4	1	8	4
CC(=O)NC[C@H]1CN(c2ccc(N3CCN(Cc4cc(N(C)C)c([N+](=O)[O-])s4)CC3)c(F)c2)C(=O)O1 [Compound No. 19, (S)-N-[[3-[3-Fluoro-[N-1-[4-{2-thiophen-(4-dimethylamino-5-nitro)methyl}]piperazinyl]phenyl]-2-oxo-5-oxazolidinyl]methyl]-acetamide]	2	4	4	4	2 µg/mL	8	2	4	8
CC(=O)NC[C@H]1CN(c2ccc(N3CCC(CN(C)Cc4ccc([N+](=O)[O-])o4)CC3)c(F)c2)C(=O)O1 [Compound No. 95]		<0.25	1	0.5		0.5		1	1
